This is an account of results in PubChem BioAssay (NCI).

SMILES strings stand for the structures.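 These data come from cells grown in 96-well plates and exposed to compound for 48 hours at five concentrations. GI50 = concentration required for 50% inhibition of growth. At the TGI there is no net growth.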

Holding throughout (experiment): inhibition of tumour cell growth, NCI panel, 48 h
Assay [1] has as its system LOX IMVI melanoma.
The subject of assay [2] is HCT-116 colon.
Assay [3] relates to UO-31 renal.
Assay [4] has as its system KM12 colon.
Assay [5] deals with HCT-15 colon.
Assay [6] concerns SF-539 CNS.
Assay [7] relates to OVCAR-4 ovarian.
Assay [8] concerns SF-268 CNS.
Assay [9] concerns A498 renal.
Assay [10] deals with CCRF-CEM leukemia.
Assay [11] concerns MOLT-4 leukemia.
In assay [12] the test system is HCC-2998 colon.
For assay [13], the system named is SK-OV-3 ovarian.
The subject of assay [14] is OVCAR-3 ovarian.
For assay [15], the system named is NCI/ADR-RES ovarian.
The subject of assay [16] is SN12C renal.
The subject of assay [17] is IGROV1 ovarian.
Assay [18] relates to MDA-MB-435.
In assay [19] the test system is TK-10 renal.

For `Nc1ccc(N=Nc2ccc(/C=C/c3ccc(N=Nc4ccc(N)c5ccc(S(=O)(=O)O)cc45)cc3S(=O)(=O)O)c(S(=O)(=O)O)c2)c2cc(S(=O)(=O)O)ccc12`, the TGI in [1], in assay [2], in assay [3], in [4], in assay [5] and in assay [6] was more than 100 µM throughout. For the same compound, the TGI in assay [7], in assay [8], in assay [9], in [10], in assay [11] and in [12] was more than 100 µM in each case. The TGI in assay [13], in assay [14], in [15], in [16] and in assay [17] was more than 100 µM throughout.
For `O=c1c2cc(I)ccc2nc(-c2cccs2)n1Nc1ccccc1`, the TGI in assay [1], in assay [2], in [3], in assay [4], in assay [5] and in assay [6] was more than 100 µM throughout. Also, the TGI in assay [7] was more than 100 µM; in assay [8], more than 100 µM; in [10], more than 100 µM; in [11] it was more than 100 µM; in [12], 50.8 µM; in [13], 74.4 µM. Moreover, the TGI was 6.52 µM in assay [14]; more than 100 µM in [15]; more than 100 µM in assay [16]; more than 100 µM in assay [18]; more than 100 µM in assay [17]. The GI50 in assay [10] is 50.7 µM.
Regarding `CC(SC1=CC(=O)c2c(Cl)ccc(O)c2C1=O)C(=O)O` (centres undefined), the TGI came out at 21.7 µM in assay [1]; 34.4 µM in assay [2]; 38.3 µM in assay [4]; 35.3 µM in [19]; 33.9 µM in assay [5]; 32.8 µM in assay [6]. The TGI is 44.2 µM in assay [8]; more than 100 µM in assay [9]; more than 100 µM in assay [10]; 57.7 µM in assay [11]; 41.1 µM in [12]; 30.9 µM in [16]. In addition, in assay [17], the TGI came to 33.4 µM.
Take `CC1CN=C(NCc2ccccc2)S1` (centres undefined): the TGI in assay [1], in [2], in [3], in assay [4], in assay [19] and in [5] was more than 100 µM throughout. Also, the TGI in [6], in assay [8], in assay [9], in assay [10], in assay [11] and in assay [12] was more than 100 µM each time. The TGI in assay [13], in [14], in assay [16] and in assay [18] was more than 100 µM in each case.
Take `C1CSCC2(COC2)CS1`: the TGI in [1], in assay [2], in assay [3], in [4], in [19] and in [7] was more than 100 µM each time. The TGI in [8], in [9], in assay [10], in assay [11], in [12] and in [13] was more than 100 µM each time. Further, the TGI in assay [15], in [16] and in [18] was more than 100 µM each time.
